One experiment addresses T1, Chymotrypsin-C (Homo sapiens, UniProt Q99895).
T1 sequence (Q99895 whole entry): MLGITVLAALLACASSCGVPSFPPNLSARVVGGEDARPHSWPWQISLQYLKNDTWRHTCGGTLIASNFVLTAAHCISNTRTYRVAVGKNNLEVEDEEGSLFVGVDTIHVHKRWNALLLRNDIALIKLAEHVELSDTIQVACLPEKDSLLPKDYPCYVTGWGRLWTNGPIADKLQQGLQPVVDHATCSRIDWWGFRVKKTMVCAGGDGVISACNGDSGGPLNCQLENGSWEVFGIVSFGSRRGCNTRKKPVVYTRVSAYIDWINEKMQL
The experiment can be described thus: Compound was tested for inhibition against alpha-chymotrypsin using N-acetyl tyrosine p-nitrophenyl ester; WI=Weak inhibition.

For experiment [1], the target named is T2, Chymotrypsin-C (Homo sapiens) (UniProt Q99895).
T2 sequence (whole entry): T1 sequence (Q99895 whole entry)
Description: Inactivation rate constant (kinact) was determined by exposing Chymotrypsinogen to different concentrations of the purine and periodically diluting aliquots into an assay medium containing one of the chromogenic substrates; NI=No inactivation

The target of experiment [2] is T2, Chymotrypsin-C (Homo sapiens). This is another data set of the same source.
Description: Inactivation efficiency (I/E) was determined by incubating different ratios of pyrone and chymotrypsin for 18 hr and then assaying the surviving enzyme activity; NI=No inactivation
Experiment [3] has the same target. The experiment can be described thus: Inactivation efficiency (I/E) was determined by incubating different ratios of pyrone and […] for 18 hr and then assaying the surviving enzyme activity; NI=No inactivation.
Experiment [4] has the same target. The source holds these as a separate data set.
Description: Inactivation efficiency (I/E) was determined by incubating different ratios of pyrone and chymotrypsin for 18 h and then assaying the surviving Chymotrypsinogen enzyme activity
Experiment [5] has the same target. The experiment can be described thus: Inactivation rate constant (kinact) was determined by exposing chymotrypsin to different concentrations of the […] and periodically diluting aliquots into an assay medium containing one of the […].

The results in this text go back to ChEMBL document CHEMBL1123343, “5-(Halomethyl)-2-pyranones as irreversible inhibitors of alpha-chymotrypsin” (J Med Chem, 1986).

Regarding `O=c1occ(CCl)cc1CCl`, the Ki entry at Chymotrypsin-C was “Weak inhibition”. Further, the K inact result in experiment [1] was “No inactivation”. Moreover, in experiment [2], the I/E result was “No inactivation”.
For the compound `Cc1oc(=O)c(Cc2cccc3ccccc23)cc1CCl`, at Chymotrypsin-C, the Ki entry is reported as “Weak inhibition”. Further, the K inact result in experiment [1] was “No inactivation”. In experiment [3], the I/E entry is “No inactivation”.
Regarding `O=c1occ(CCl)cc1Cc1cccc2ccccc12`, at Chymotrypsin-C, the Ki result is “Weak inhibition”. The I/E in experiment [4] turned out to be 1.38. The compound also yielded a K inact in experiment [5] of 0.085 min⁻¹.
